{"source": "paper PMC9365315", "about": "(ACS chemical neuroscience, 2022)", "key": {"[1]": {"system": "RAW 264.7 mouse macrophages induced with LPS", "experiment": "Cytokine mRNA expression in LPS-induced RAW 264.7 macrophages", "type": "cell-based", "conditions": "10 and 1 μM, 48 h, preliminary data"}, "EAE mice": {"system": "EAE mice", "experiment": "Mechanical withdrawal thresholds", "type": "in vivo, mouse (C57BL/6, female)", "conditions": "day 24 post-EAE induction; compound 5 and modafinil 10 mg/kg, Solu-Medrol 50 mg/kg p.o. days 1–10"}}, "data": [{"smiles": "NC(=O)C[S+]([O-])C(c1ccccc1)c1ccccc1", "note": "(racemic) [(±)-modafinil]", "values": [{"measurement": "mRNA expression levels of TNF-α, IL-1β and IL-4Rα", "setting": "[1]", "result": "minimal ability to modulate"}, {"measurement": "Mechanical withdrawal threshold, front left paw (von Frey)", "setting": "EAE mice", "result": "decreased reflex thresholds"}]}]}
